As usually defined, the IC50 is the point on the concentration scale where inhibition reaches its midpoint. For orientation: CC50 means the concentration giving 50% cytotoxicity.

This is an account of results in publication PMC3121703, “Inhibitory activity of 9-phenylcyclohepta[d]pyrimidinedione derivatives against different strains of HIV-1 as non-nucleoside reverse transcriptase inhibitors” (Virology Journal, 2011).

Like-named read-outs stand apart in the source and are kept apart here.

Data set [1] concerns HIV-1 SF33. Nature of the data set: HIV-1 inhibition assay, MT4 cells, p24 ELISA. It is filed as cell-based. The following applies: for IC50: Human immunodeficiency virus 1. The protocol: (§1) The inhibitory activity of BmPCP, APCP, BPCP and EPCP on infection by laboratory-adapted HIV-1 strains was tested in TZM-bl cells, MT4 cells or PBMCs, respectively, as previously described. TZM-bl cells were seeded at 10^4/well and cultured in a 96-well tissue culture plate overnight, followed by addition of 200 TCID50 (50% Tissue Culture Infective Dose) of HIV-1 virus. After incubation at 37°C for 2 hrs, BmPCP at graded concentrations was added. After further incubation at 37°C for 48 hrs, the luciferase activity was measured using a luciferase assay kit (Promega Corp.) according to the manufacturer's instructions. MT4 cells (4 × 10^4/well) and PBMCs (1 × 10^5/well) were infected by addition of 200 TCID50 of HIV-1 virus, followed by incubation for 2 hrs at 37°C before addition of BmPCP at serial dilutions. After further incubation at 37°C for 4 days (for MT4 cells) or 7 days (for PBMCs), HIV-1 p24 was measured using a commercial enzyme-linked immunosorbent assay (ELISA) kit (Vironostika HIV-1 Microelisa system; BioMérieux; Marcy l'Etoile, France). The inhibitory activity of BmPCP on infection by primary HIV-1 isolates was also tested in PBMCs as described above. The percent of inhibition and the IC50 were calculated as previously described.
(ELISA stands for enzyme-linked immunosorbent assay.)

For data set [2], the system named is HIV-1 SF33. The data set can be described thus: HIV-1 inhibition assay, TZM-bl cells, luciferase. It is filed as cell-based. The settings on record: for IC50: Human immunodeficiency virus 1. The protocol:
as §1

A further data set in a line: XTT cytotoxicity assay. The settings on record: human. It is filed as cell-based. On the procedure: (§2) XTT assay was used to test the cytotoxicity of BmPCP on MT4 cells, human PBMCs (non-stimulated) and TZM-bl cells.
(§3) An XTT assay, as previously described, was used for assessing the cytotoxicity of BmPCP to the cells tested for anti-HIV-1 activity. Briefly, BmPCP at graded concentrations was added to MT4 cells, PBMCs, and TZM-bl cells at 4 × 10^4, 1 × 10^5 and 1 × 10^4 cells per well, respectively, followed by an incubation at 37°C for 3 days. Ten microliters of CCK-8 reagent was added to the cells. After incubation at 37°C, for 4 h to allow color development of the XTT formazan product, the absorbance of each well was then read at 450 nm in a Victor2 1420 Multilabel Counter (Wallace-PerkinElmer Life and Analytical Sciences Inc., Boston, MA). The percent of cytotoxicity and CC50 were calculated as previously described.
(In general: Tetrazolium dyes change colour on reduction, which living cells bring about.)

Data set [3] deals with HIV-1 SF33. The data set can be described thus: HIV-1 inhibition assay, PBMCs, p24 ELISA. It is filed as cell-based. The following applies: for IC50: Human immunodeficiency virus 1, PBMC. On the procedure:
as §1

In a further data set the test system is HIV-1 1617-1. The data set can be described thus: microbe, parasite or virus in culture. It is filed as cell-based. The protocol: We tested the antiviral activity of BmPCP in three cells including peripheral blood mononuclear cells (PBMCs), TZM-b1 and MT4 cells by using HIV-1SF33 and HIV-1 1617-1, a variant bearing K70G, 184V, 75I, 77L, I16Y and I51M mutations, which are resistant to NRTIs (e.g., d4T, DDI and AZT).
as §1

The next data set deals with HIV-1 AH104. Nature of the data set: Primary HIV-1 isolate inhibition in PBMCs. It is filed as cell-based. The following applies: Human immunodeficiency virus 1, PBMC; primary isolate AH104, subtype B', X4/R5, PBMCs. On the procedure:
(§4) HIV-1CRF07_BC and B' (Thailand B, a kind variant of subtype B) are two epidemic strains in China. Furthermore, to verify the antiviral activity on China clinical isolates, CRF07_BC and B' were chosen.
as §1

Another data set relates to HIV-1 AH259. Nature of the data set: Primary HIV-1 isolate inhibition in PBMCs. The following applies: primary isolate AH259, subtype B', R5, PBMCs; for IC50: Human immunodeficiency virus 1, PBMC. It is filed as cell-based. The protocol: as §4, §1
The next data set has as its system HIV-1 AH968. The data set can be described thus: Primary HIV-1 isolate inhibition in PBMCs. The following applies: primary isolate AH968, subtype B', R5, PBMCs; for IC50: Human immunodeficiency virus 1, PBMC. It is filed as cell-based. The protocol:
as §4, §1

In a further data set the test system is HIV-1 XJ0793. The data set can be described thus: Primary HIV-1 isolate inhibition in PBMCs. It is filed as cell-based. The following applies: primary isolate XJ0793, subtype B'/C, R5, PBMCs; for IC50: Human immunodeficiency virus 1, PBMC. The protocol: as §4, §1
The subject of the next data set is HIV-1 XJ257. Nature of the data set: Primary HIV-1 isolate inhibition in PBMCs. The settings on record: primary isolate XJ257, subtype B'/C, R5, PBMCs; for IC50: Human immunodeficiency virus 1, PBMC. It is filed as cell-based. The protocol: as §4, §1
The next data set deals with HIV-1 XJ6291. Nature of the data set: Primary HIV-1 isolate inhibition in PBMCs. The following applies: for IC50: Human immunodeficiency virus 1, PBMC. It is filed as cell-based. The protocol: as §4, §1
A further data set relates to MT4 cells. The data set can be described thus: XTT cytotoxicity assay. It is filed as cell-based. The protocol:
as §2, §3

The test system of another data set is TZM-bl cells. The data set can be described thus: XTT cytotoxicity assay. It is filed as cell-based. On the procedure: as §2, §3
The next data set deals with HIV-1SF33. Nature of the data set: Time-of-addition assay. It is filed as cell-based. The settings on record: for Antiviral activity in time-of-addition assay: added eight hours post-infection, BmPCP 13.3 μM, NVP 5 μM. On the procedure:
Figure 2 Time-of-addition assay of compounds. TZM-bl cells were infected with HIV-1SF33 at 200 TCID50.
MT4 cells were seeded at 10^4/well and cultured in a 96-well tissue culture plate overnight, followed by addition of 200 TCID50 of HIV-1SF33. […] HIV-1 p24 was measured using a commercial enzyme-linked immunosorbent assay (ELISA) kit (Vironostika HIV-1 Microelisa system; BioMérieux; Marcy l'Etoile, France).

For another data set, the system named is HIV-1. Nature of the data set: HIV-1 inhibition assays, summary over strains and cells. It is filed as cell-based. The following applies: broad spectrum of HIV-1 strains incl. Chinese clinical isolates. On the procedure:
as §1

The nature of data set [4]: XTT cytotoxicity assay, summary over cells. It is filed as cell-based. The settings on record: human, human PBMCs (non-stimulated) and TZM-bl cells, MT4, PBMCs and TZM-bl cells, read-out: CC50, range. On the procedure:
as §2, §3

The target of data set [5] is HIV-1 reverse transcriptase (Human immunodeficiency virus type 1 group M subtype B, UniProt P04585). The data set can be described thus: ELISA RT assay for inhibition of HIV-1 reverse transcriptase activity.
Description: Oligo(dT) 15 was immobilized via its 5'-terminal phosphate to Covalink-NH microtiter plates. The biotin-dUTP was incorporated by reverse transcriptase. The products were detected and quantified using a colorimetric strep- tavidin-alkaline phosphatase reporter system.
Briefly, Oligo(dT) 15 was immobilized via its 5'-terminal phosphate to CovaLink NH microtiter plates. The biotin-dUTP was incorporated by reverse transcriptase. The products were detected and quantified using a colorimetric streptavidin alkaline phosphatase reporter system.
[6] abbreviates: Human immunodeficiency virus 1, MT4.
The mark [7] stands for this setting: Human immunodeficiency virus 1, PBMC.
Where [8] appears, read: Human immunodeficiency virus 1, TZM-bl.

Turning to `C=CCn1c2c(c(=O)[nH]c1=O)CCCCC2c1ccccc1` (stereo not drawn) [APCP], the “SI (Selectivity index = CC50/IC50)” value in the data set with HIV-1 SF33 [1] is given as 2.17; with HIV-1 SF33 [2] it was 38.46. Also, the results for the IC50 with HIV-1 SF33 [1] and in the data set with HIV-1 SF33 [2] were 28600 nM and 1300 nM, respectively. Also, the half-maximal cytotoxic concentration (CC50) at 3 days was determined as 62000 nM in “XTT cytotoxicity assay” (MT4 cells) and 50000 nM in the data set “XTT cytotoxicity assay” (TZM-bl cells).
As for `O=c1[nH]c(=O)n(COCc2ccccc2)c2c1CCCCC2c1ccccc1` (stereo not drawn) [BmPCP], the “SI (Selectivity index = CC50/IC50)” value with HIV-1 SF33 [1] amounted to 84; with HIV-1 SF33 [2], 266; with HIV-1 SF33 [3], 67; in the data set on HIV-1 1617-1 (1617-1/PBMCs), 65; with HIV-1 1617-1 (1617-1/TZM-bl), 62; in the data set on HIV-1 AH259, 282. Besides, the “SI (Selectivity index = CC50/IC50)” value in the data set on HIV-1 AH968 was 205; in the data set on HIV-1 XJ0793, 361; in the data set on HIV-1 XJ257, 170; in the data set on HIV-1 XJ6291 (primary isolate XJ6291, subtype B'/C, R5, PBMCs), 158. The IC50 with HIV-1 SF33 [1] amounted to 1960 nM; in the data set with HIV-1 SF33 [2], 340 nM; in the data set with HIV-1 SF33 [3] it was 1720 ± 370 nM; with HIV-1 1617-1 (setting [6]), 1470 ± 430 nM; in the data set on HIV-1 1617-1 (setting [7]), 1760 ± 230 nM; in the data set on HIV-1 1617-1 (setting [8]), 1450 ± 210 nM. The IC50 in the data set with HIV-1 AH104 came to 590 ± 340 nM; in the data set with HIV-1 AH259, 320 ± 150 nM; in the data set with HIV-1 AH968, 440 ± 170 nM; in the data set on HIV-1 XJ0793, 250 ± 30 nM; in the data set with HIV-1 XJ257, 530 ± 70 nM; in the data set with HIV-1 XJ6291, 570 ± 20 nM. For the same compound, in data set [5], the IC50 was found to be 1510 nM. In addition, the CC50 at 3 days in “XTT cytotoxicity assay” (MT4 cells) was 90300 nM; in the data set “XTT cytotoxicity assay” (PBMCs (non-stimulated), PBMC), 114000 ± 9380 nM; in the data set “XTT cytotoxicity assay” (TZM-bl cells) it was 129000 nM; in data set [4], 90000 to 165000 nM. Further, the CC90 at 3 days in the data set “XTT cytotoxicity assay” (MT4 cells) is 383000 ± 53500 nM; in “XTT cytotoxicity assay” (PBMCs (non-stimulated), PBMC) it was 229000 ± 6400 nM; in the data set “XTT cytotoxicity assay” (TZM-bl cells) it was 208000 ± 8690 nM. In addition, the CC50 is 165000 nM with MT4 cells and 90300 nM in the data set with TZM-bl cells. The “Antiviral activity in time-of-addition assay” value with HIV-1SF33 was “demonstrated antiviral activity”. Also, the “IC50, level over HIV-1 strains” value with HIV-1 is given as “low μM levels”.
For the compound `O=c1[nH]c(=O)n(Cc2ccccc2)c2c1CCCCC2c1ccccc1` (stereo not drawn) [BPCP], the “SI (Selectivity index = CC50/IC50)” value in the data set with HIV-1 SF33 [1] is on record as 1.15; with HIV-1 SF33 [2], 20. Further, the IC50 in the data set on HIV-1 SF33 [1] came out at 115000 nM; in the data set with HIV-1 SF33 [2] it was 9000 nM. The CC50 at 3 days amounted to 132000 nM in “XTT cytotoxicity assay” (MT4 cells) and 180000 nM in “XTT cytotoxicity assay” (TZM-bl cells).
For `Cc1ccnc2c1NC(=O)c1cccnc1N2C1CC1` [NVP, nevirapine, reference compound], the IC50 in the data set with HIV-1 SF33 [1] is 650 ± 230 nM; in the data set on HIV-1 SF33 [2], 190 ± 20 nM; in the data set on HIV-1 SF33 [3] it was 690 ± 70 nM; with HIV-1 1617-1 (setting [6]) it was 440 ± 120 nM; in the data set with HIV-1 1617-1 (setting [7]), 570 ± 80 nM; in the data set on HIV-1 1617-1 (setting [8]), 160 ± 100 nM. In addition, the IC50 in the data set on HIV-1 AH104 worked out at 7 ± 3 nM; with HIV-1 AH259, 7 ± 1 nM; in the data set on HIV-1 AH968 it was 58 ± 60 nM; with HIV-1 XJ0793, 79 ± 97 nM; in the data set with HIV-1 XJ257, 211 ± 120 nM; in the data set with HIV-1 XJ6291 (primary isolate XJ6291, subtype B'/C, R5, PBMCs, read-out: IC50), 186 ± 224 nM. For the same compound, in the data set with HIV-1SF33, the “Antiviral activity in time-of-addition assay” value is given as “demonstrated antiviral activity”.
In the case of `CCOCn1c2c(c(=O)[nH]c1=O)CCCCC2c1ccccc1` (stereo not drawn) [EPCP], the entries for the “SI (Selectivity index = CC50/IC50)” value with HIV-1 SF33 [1] and with HIV-1 SF33 [2] were 3.9 and 13.75, respectively. Also, the IC50 worked out at 7500 nM with HIV-1 SF33 [1] and 1600 nM in the data set on HIV-1 SF33 [2]. For the same compound, the results for the half-maximal cytotoxic concentration (CC50) at 3 days in the data set “XTT cytotoxicity assay” (MT4 cells) and in “XTT cytotoxicity assay” (TZM-bl cells) were 29300 nM and 22000 nM, respectively.
Enfuvirtide [T20]: the “Inhibitory activity in time-of-addition assay” value in the data set with HIV-1SF33 (added one hour after viral infection, T-20 5 μM) is given as “no inhibitory activity”.
